What all share (assay): NCI tumour cell line growth inhibition, 48 h
The subject of experiment [1] is SW-620 colon.
In experiment [2] the test system is SN12C renal.
In experiment [3] the test system is SF-268 CNS.
Experiment [4] has as its system A549 NSCLC.
Experiment [5] has as its system MALME-3M melanoma.
Experiment [6] relates to MCF7 breast.
Experiment [7] concerns COLO 205 colon.
Experiment [8] concerns OVCAR-5 ovarian.
The subject of experiment [9] is OVCAR-4 ovarian.
The subject of experiment [10] is K-562 leukemia.

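Test compounds were applied to cells in 96-well plates for 48 hours at 5 doses. At the GI50, growth is halved. TGI denotes the concentration required for complete inhibition of growth.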 *1 amine or outer side, *2 acyl side, *3 side chain or, on linkers, in order; H or OH if unused. Where a SMILES comes first, the peptide text is derived from it. The star is where a group is joined. γGlu = O=C(O)[CH](CCC(=O)[*:2])N[*:1]; NHOH = ON*

Regarding `Nc1nc(N)c2cc(-c3cc4ccccc4[nH]3)ccc2n1`, the TGI in [1] was 90.3 µM; in experiment [2], more than 100 µM; in [3], 95.5 µM; in [4], more than 100 µM; in experiment [5] it was 30.4 µM; in [6], 33.6 µM. Moreover, the TGI in experiment [7] worked out at 24 µM; in experiment [8], 65 µM; in experiment [9] it was 63.5 µM.
For the molecule `CCOc1cc2c(cc1OC)c[n+](C)c1c3cc(OC)c(OC)cc3ccc21`, the TGI in [1] was more than 93.5 µM; in experiment [2], more than 100 µM; in experiment [3], more than 100 µM; in experiment [4] it was more than 100 µM; in experiment [5], more than 100 µM; in experiment [10], more than 49 µM. Also, the TGI in experiment [7] is more than 100 µM; in experiment [8] it was more than 85.2 µM; in [9], more than 100 µM.
On to `Cc1c2ccccc2c(=O)n2c(-c3ccccn3)cccc12`, for which the TGI in experiment [1], in experiment [2], in [3], in experiment [4], in [5] and in [10] was more than 100 µM throughout. The TGI in experiment [7] and in experiment [9] was more than 100 µM throughout.
Take `Cc1ccc(S(=O)(=O)N(CC(O)COc2ccccc2)c2c(F)c(F)c(F)c(F)c2F)cc1` (centres undefined): the TGI in experiment [1] worked out at 36.2 µM; in experiment [2], 37.7 µM; in experiment [3], 30.9 µM; in experiment [4], 36.8 µM; in experiment [5] it was 53.1 µM; in experiment [6], 23.2 µM. For the same molecule, the figures for the TGI in [7], in experiment [8] and in experiment [9] were 29.8 µM, 34.1 µM and 29.2 µM, respectively.
Regarding `CC(C)NC1CCCCC2c3ccccc3C12O` (centres undefined), the TGI in experiment [1], in experiment [2], in experiment [3], in experiment [4], in [5] and in [10] was more than 100 µM throughout. For the same molecule, the TGI in [7] and in experiment [9] was more than 100 µM in each case.
Turning to `CC(C)C(Sc1nc(-c2ccccc2)c(-c2ccccc2)[nH]1)C(=O)N/N=C/c1ccc(Cl)cc1` (centres undefined), the TGI in [1] is 68.2 µM; in [2], 36.3 µM; in experiment [3], 57.6 µM; in experiment [4], 82.3 µM; in [5], 47.7 µM; in experiment [7], 35.5 µM. In addition, the TGI in experiment [8] came to 52.4 µM; in experiment [9], 98.4 µM.
Take `C[C@]12CC[C@H]3[C@@H](CC=C4C[C@@H](N5CCCC5)CC[C@@]43C)[C@@H]1C/C(=C\c1ccc([N+](=O)[O-])cc1)[C@@H]2O`: the TGI in [1] is 36.6 µM; in experiment [2] it was 27.5 µM; in experiment [3] it was 40.1 µM; in experiment [4] it was 32.6 µM; in experiment [5] it was 32.1 µM; in experiment [6] it was 68.9 µM. The TGI in [7] is 32.6 µM; in experiment [9], 25.4 µM.
For `NC(=O)N/N=C(\Cc1cc(=O)oc2cc(O)ccc12)C(=O)Nc1ccccc1C(N)=O`, the TGI in experiment [1], in experiment [2], in experiment [3], in [4], in [6] and in [7] was more than 100 µM in each case. Moreover, the TGI in [8] and in experiment [9] was more than 100 µM each time.
As to `O=c1[nH]c2c(C(F)(F)F)c(Cl)c(-c3ccccc3)nc2o1`, the TGI is more than 100 µM in [1]; 32.4 µM in experiment [2]; more than 100 µM in experiment [3]; more than 100 µM in experiment [4]; more than 100 µM in experiment [6]; 84.3 µM in [10]. In addition, the TGI came out at 28.1 µM in experiment [7], 58.2 µM in experiment [8] and 69.5 µM in experiment [9].
With `COC(=O)[C@H](Cc1ccccc1)NC(=O)N(CCN(CCC#N)C(=O)N[C@H](C(=O)OC)C(C)C)c1ccccc1`, the TGI in experiment [1], in experiment [2], in experiment [3], in [4], in experiment [5] and in experiment [6] was more than 100 µM each time. Besides, the TGI in [7], in [8] and in experiment [9] was more than 100 µM throughout.
For the molecule `NC(CCC(=O)NC(CCC(=O)NO)C(=O)NCC(=O)O)C(=O)O` (centres undefined) (γGlu-Glu(NHOH)-Gly-OH; configuration not given here), the TGI in experiment [1], in experiment [2], in [3], in experiment [4], in experiment [6] and in experiment [10] was more than 100 µM in each case. The TGI in experiment [7], in experiment [8] and in experiment [9] was more than 100 µM in each case.
Take `O=C(CN1CCCCC1)c1ccc2[nH]c(=O)oc2c1`: the TGI in [1], in [2], in [3], in [5], in experiment [6] and in experiment [10] was more than 100 µM throughout. The TGI in experiment [7] and in [8] was more than 100 µM in each case.
`CCCSc1ccc2[nH]c(N3C(=O)/C(=C/c4ccc(O)c(OC)c4)N=C3c3ccccc3)cc2c1`: the TGI in experiment [1] is more than 100 µM; in [2], 50.4 µM; in experiment [3], more than 100 µM; in experiment [5], 84 µM; in experiment [6] it was more than 100 µM; in experiment [10] it was more than 100 µM. Also, the values for the TGI in experiment [7] and in experiment [8] were 19.5 µM and 44.3 µM, respectively.
In the case of `COc1ccc(-c2nc(-c3nc4cc(Cl)c(Cl)cc4[nH]3)c3ccccn23)cc1`, the GI50 in [1] was 8.37 µM; in experiment [2], more than 100 µM; in [3] it was 2.59 µM; in [5] it was 2.51 µM; in experiment [6], 7.2 µM; in experiment [8], more than 100 µM. Moreover, the GI50 in experiment [9] was 2 µM. Moreover, the TGI in experiment [1] was more than 100 µM; in [2] it was more than 100 µM; in [3], 6.83 µM; in experiment [5], 5.85 µM; in experiment [6], more than 100 µM; in [8], more than 100 µM. The TGI in [9] is 4.9 µM.

The values above are taken from PubChem BioAssay (NCI).
